According to patent US20040044000A1, “Isoquinoline derivatives as matrix metalloproteinase inhibitors” (priority 2002, published 2004):

The compounds below were run against T1, MMP-13 catalytic domain (MMP-13CD) (Homo sapiens, UniProt P45452) (assay: Inhibition of MMP-13 catalytic domain (thiopeptolide substrate hydrolysis)). Conditions: Biological Table 1; read-out: MMP-13CD IC50.
T1 construct: use the catalytic domain of the MMP-13 enzyme, namely matrix metalloproteinase-13 catalytic domain (“MMP-13CD”), rather than the corresponding full-length enzyme
Assay type: biochemical
Text: The assays measure the amount by which a test compound reduces the hydrolysis of a thiopeptolide substrate catalyzed by a matrix metalloproteinase enzyme. Such assays are described in detail by Ye et al., in Biochemistry, 1992;31(45):11231-11235, which is incorporated herein by reference. One such assay is described below in Biological Method 1.
Some of the particular methods described below use the catalytic domain of the MMP-13 enzyme, namely matrix metalloproteinase-13 catalytic domain (“MMP-13CD”), rather than the corresponding full-length enzyme, MMP-13. It has been shown previously by Ye Qi-Zhuang, Hupe D., and Johnson L. (Current Medicinal Chemistry, 1996;3:407-418) that inhibitor activity against a catalytic domain of an MMP is predictive of the inhibitor activity against the respective full-length MMP enzyme.
Thiopeptolide substrates show virtually no decomposition or hydrolysis at or below neutral pH in the absence of a matrix metalloproteinase enzyme. A typical thiopeptolide substrate commonly utilized for assays is Ac-Pro-Leu-Gly-thioester-Leu-Leu-Gly-OEt. A 100 μL assay mixture will contain 50 mM of N-2-hydroxyethylpiperazine-N′-2-ethanesulfonic acid buffer (“HEPES,” pH 7.0), 10 mM CaCl2, 100 μM thiopeptolide substrate, and 1 mM 5,5′-dithio-bis-(2-nitro-benzoic acid) (DTNB). The thiopeptolide substrate concentration may be varied, for example from 10 to 800 μM to obtain Km and Kcat values. The change in absorbance at 405 nm is monitored on a Thermo Max microplate reader (molecular Devices, Menlo Park, Calif.) at room temperature (22° C.). The calculation of the amount of hydrolysis of the thiopeptolide substrate is based on E412=13600 M^−1 cm^−1 for the DTNB-derived product 3-carboxy-4-nitrothiophenoxide. Assays are carried out with and without matrix metalloproteinase inhibitor compounds, and the amount of hydrolysis is compared for a determination of inhibitory activity of the test compounds.
Test compounds were evaluated at various concentrations in order to determine their respective IC50 values, the micromolar concentration of compound required to cause a 50% inhibition of catalytic activity of the respective enzyme.

IC50 [µM]	Structure (SMILES)
49	O=C(NCCn1cccc1)c1ccc2ccn(Cc3ccc(-c4nn[nH]n4)cc3)c(=O)c2c1 [Example 63, 1-oxo-2-[4-(2H-tetrazol-5-yl)benzyl]-1,2-dihydroisoquinoline-7-carboxylic Acid (2-pyrrol-1-yl-ethyl)amide]
1.8	O=C(O)c1ccc(Cn2ccc3ccc(C(=O)NCc4cncnc4)cc3c2=O)cc1 [Example 28, 4-[1-oxo-7-[(pyrimidin-5-ylmethyl)carbamoyl]-1H-isoquinolin-2-ylmethyl]benzoic Acid]
26	O=C(NCc1ccncc1)c1ccc2ccn(CCOc3ccccc3)c(=O)c2c1 [Example 41, 1-oxo-2-(2-phenoxyethyl)-1,2-dihydroisoquinoline-7-carboxylic Acid (pyridin-4-ylmethyl)amide]
> 100	O=C(NCc1cncnc1)c1ccc2ccn(CCOc3ccccc3)c(=O)c2c1 [Example 46, 1-oxo-2-(2-phenoxyethyl)-1,2-dihydroisoquinoline-7-carboxylic Acid (pyrimidin-5-ylmethyl)-amide]
3.8	COc1cc(CNC(=O)c2ccc3ccn(CCOc4ccccc4)c(=O)c3c2)ccn1 [Example 43, 1-oxo-2-(2-phenoxyethyl)-1,2-dihydroisoquinoline-7-carboxylic Acid (2-methoxypyridin-4-ylmethyl)amide]
7.5	COc1ccc(CNC(=O)c2ccc3ccn(CCOc4ccccc4)c(=O)c3c2)cc1 [Example 44, 1-oxo-2-(2-phenoxyethyl)-1,2-dihydroisoquinoline-7-carboxylic Acid 4-methoxybenzylamide]
55	O=C(NCc1cccnc1)c1ccc2ccn(CCOc3ccccc3)c(=O)c2c1 [Example 42, 1-oxo-2-(2-phenoxyethyl)-1,2-dihydroisoquinoline-7-carboxylic Acid (pyridin-3-ylmethyl)amide]
> 30	Cc1ccc(CNC(=O)c2ccc3ccn(Cc4ccc(S(C)(=O)=O)cc4)c(=O)c3c2)cc1 [Example 55, 2-(4-methane-sulfonylbenzyl)-1-oxo-1,2-dihydro-isoquinoline-7-carboxylic Acid 4-methylbenzyl-amide]
3.1	CS(=O)(=O)c1ccc(Cn2ccc3ccc(C(=O)NCc4ccncc4)cc3c2=O)cc1 [Example 49, 2-(4-methanesulfonylbenzyl)-1-oxo-1,2-dihydroisoquinoline-7-carboxylic Acid (pyridin-4-ylmethyl)amide]
4.2	CSc1ccc(CNC(=O)c2ccc3ccn(CCOc4ccccc4)c(=O)c3c2)cc1 [Example 48, 1-oxo-2-(2-phenoxyethyl)-1,2-dihydroisoquinoline-7-carboxylic Acid 4-methylsulfanylbenzamide]
3.4	N#Cc1ccc(Cn2ccc3ccc(C(=O)NCc4cccnc4)cc3c2=O)cc1 [Example 34, 2-(4-cyanobenzyl)-1-oxo-1,2-dihydro-isoquinoline-7-carboxylic acid (pyridin-3-ylmethyl)amide]
17	N#Cc1ccc(Cn2ccc3ccc(C(=O)NCc4cncnc4)cc3c2=O)cc1 [Example 38, 2-(4-cyanobenzyl)-1-oxo-1,2-dihydro-isoquinoline-7-carboxylic Acid (pyrimidin-5-ylmethyl)amide]

Same assay, conditions: Biological Table 2, compounds of Example 66; read-out: MMP-13CD IC50

IC50 [µM]	Structure (SMILES)
9.4	COC(=O)CCCCn1ccc2ccc(C#CCc3ccccc3)cc2c1=O [Example 66p, 5-[1-Oxo-7-(3-phenyl-prop-1-ynyl)-1H-isoquinolin-2-yl]-pentanoic acid methyl ester]
12	CCOC(=O)CCCn1ccc2ccc(C#CCc3ccccc3)cc2c1=O [Example 66aa, 4-[1-Oxo-7-(3-phenyl-prop-1-ynyl)-1H-isoquinolin-2-yl]-butyric acid ethyl ester]
8.6	N#CCCCCCn1ccc2ccc(C#CCc3ccccc3)cc2c1=O [Example 66af, 6-[1-Oxo-7-(3-phenyl-prop-1-ynyl)-1H-isoquinolin-2-yl]-hexanenitrile]
20	CC(C)(CO)Cn1ccc2ccc(C#CCc3ccccc3)cc2c1=O [Example 66y, 2-(3-Hydroxy-2,2-dimethyl-propyl)-7-(3-phenyl-prop-1-ynyl)-2H-isoquinolin-1-one]
8.7	CCOC(=O)CCCCn1ccc2ccc(C#CCc3ccccc3)cc2c1=O [Example 66s, 5-[1-Oxo-7-(3-phenyl-prop-1-ynyl)-1H-isoquinolin-2-yl]-pentanoic acid ethyl ester]
> 100	COC(=O)CCn1ccc2ccc(C#CCc3ccccc3)cc2c1=O [Example 66k, 3-[1-Oxo-7-(3-phenyl-prop-1-ynyl)-1H-isoquinolin-2-yl]-propionic acid methyl ester]
4.8	N#CCCn1ccc2ccc(C#CCc3ccccc3)cc2c1=O [Example 66d, 3-[1-Oxo-7-(3-phenyl-prop-1-ynyl)-1H-isoquinolin-2-yl]-propionitrile]
24	O=c1c2cc(C#CCc3ccccc3)ccc2ccn1CC(F)(F)F [Example 66ah, 7-(3-Phenyl-prop-1-ynyl)-2-(2,2,2-trifluoro-ethyl)-2H-isoquinolin-1-one]
14	O=c1c2cc(C#CCc3ccccc3)ccc2ccn1CCCC(F)(F)F [Example 66ai, 7-(3-Phenyl-prop-1-ynyl)-2-(4,4,4-trifluoro-butyl)-2H-isoquinolin-1-one]
34	COC(Cn1ccc2ccc(C#CCc3ccccc3)cc2c1=O)OC [Example 66h, 2-(2,2-Dimethoxy-ethyl)-7-(3-phenyl-prop-1-ynyl)-2H-isoquinolin-1-one]
14	CC(=O)OCCCCn1ccc2ccc(C#CCc3ccccc3)cc2c1=O [Example 66l, Acetic acid 4-[1-oxo-7-(3-phenyl-prop-1-ynyl)-1H-isoquinolin-2-yl]-butyl ester]
22	COC(=O)Cn1ccc2ccc(C#CCc3ccccc3)cc2c1=O [Example 66q, [1-Oxo-7-(3-phenyl-prop-1-ynyl)-1H-isoquinolin-2-yl]-acetic acid methyl ester]
19	CC(C)(C)C(=O)Cn1ccc2ccc(C#CCc3ccccc3)cc2c1=O [Example 66ae, 2-(3,3-Dimethyl-2-oxo-butyl)-7-(3-phenyl-prop-1-ynyl)-2H-isoquinolin-1-one]
11	N#CCCCCn1ccc2ccc(C#CCc3ccccc3)cc2c1=O [Example 66j, 5-[1-Oxo-7-(3-phenyl-prop-1-ynyl)-1H-isoquinolin-2-yl]-pentanenitrile]
7.1	O=c1c2cc(C#CCc3ccccc3)ccc2ccn1CCCCCCO [Example 66ac, 2-(6-Hydroxy-hexyl)-7-(3-phenyl-prop-1-ynyl)-2H-isoquinolin-1-one]
> 30	CC1OCCCC1n1ccc2ccc(C#CCc3ccccc3)cc2c1=O (stereo not drawn) [Example 66g, 2-(2-Methyl-tetrahydro-pyran-3-yl)-7-(3-phenyl-prop-1-ynyl)-2H-isoquinolin-1-one]
> 30	O=c1c2cc(C#CCc3ccccc3)ccc2ccn1CCC1OCCCO1 [Example 66f, 2-(2-1,3-Dioxinan-2-yl-ethyl)-7-(3-phenyl-prop-1-ynyl)-2H-isoquinolin-1-one]
33	CCOC(Cn1ccc2ccc(C#CCc3ccccc3)cc2c1=O)OCC [Example 66r, 2-(2,2-Diethoxy-ethyl)-7-(3-phenyl-prop-1-ynyl)-2H-isoquinolin-1-one]
50	O=c1c2cc(C#CCc3ccccc3)ccc2ccn1CC(O)CO (stereo not drawn) [Example 66e, 2-(2,3-Dihydroxy-propyl)-7-(3-phenyl-prop-1-ynyl)-2H-isoquinolin-1-one]
> 100	O=c1c2cc(C#CCc3ccccc3)ccc2ccn1CC[S+]([O-])c1ccccc1 (stereo not drawn) [Example 66z, 2-(2-Benzenesulfinyl-ethyl)-7-(3-phenyl-prop-1-ynyl)-2H-isoquinolin-1-one]

Same assay, conditions: hMMP-13CD, text b731; read-out: IC50 with hMMP-13CD

IC50 [µM]	Structure (SMILES)
> 50	O=C(O)c1ccc(Cn2ccc3ccc(C#CCn4ccnn4)cc3c2=O)cc1 [4-[1-oxo-7-(3-[1,2,3]triazol-1-ylprop-1-ynyl)-1H-isoquinolin-2-ylmethyl]benzoic acid]

Same assay, conditions: read-out: IC50 with MMP-13 catalytic domain

IC50 [µM]	Structure (SMILES)
0.0089	O=C(O)c1ccc(Cn2ccc3ccc(C#CCn4ccnc4)cc3c2=O)cc1 [Example 13, 4-[7-(3-Imidazol-1-ylprop-1-ynyl)-1-oxo-1H-isoquinolin-2-ylmethyl]benzoic Acid]
0.0018	O=C(O)c1ccc(Cn2ccc3ccc(C#CCc4ccccc4)cc3c2=O)cc1 [Example 1, 4-[1-Oxo-7-(3-phenyl-prop-1-ynyl)-1H-isoquinolin-2-ylmethyl]benzoic Acid]
0.036	NS(=O)(=O)c1ccc(Cn2ccc3ccc(C#CCc4ccccc4)cc3c2=O)cc1 [Example 5, 4-[1-Oxo-7-(3-phenyl-prop-1-ynyl)-1H-isoquinolin-2-ylmethyl]benzenesulfonamide]
